The source of these data is patent US20030143729A1 (Synaptic Pharmaceutical Corporation, priority 1992, published 2003).

Experiment [1] addresses T1, taurine transporter (rB16a) (Rattus norvegicus, UniProt P31643).
T1 sequence (P31643 1-621): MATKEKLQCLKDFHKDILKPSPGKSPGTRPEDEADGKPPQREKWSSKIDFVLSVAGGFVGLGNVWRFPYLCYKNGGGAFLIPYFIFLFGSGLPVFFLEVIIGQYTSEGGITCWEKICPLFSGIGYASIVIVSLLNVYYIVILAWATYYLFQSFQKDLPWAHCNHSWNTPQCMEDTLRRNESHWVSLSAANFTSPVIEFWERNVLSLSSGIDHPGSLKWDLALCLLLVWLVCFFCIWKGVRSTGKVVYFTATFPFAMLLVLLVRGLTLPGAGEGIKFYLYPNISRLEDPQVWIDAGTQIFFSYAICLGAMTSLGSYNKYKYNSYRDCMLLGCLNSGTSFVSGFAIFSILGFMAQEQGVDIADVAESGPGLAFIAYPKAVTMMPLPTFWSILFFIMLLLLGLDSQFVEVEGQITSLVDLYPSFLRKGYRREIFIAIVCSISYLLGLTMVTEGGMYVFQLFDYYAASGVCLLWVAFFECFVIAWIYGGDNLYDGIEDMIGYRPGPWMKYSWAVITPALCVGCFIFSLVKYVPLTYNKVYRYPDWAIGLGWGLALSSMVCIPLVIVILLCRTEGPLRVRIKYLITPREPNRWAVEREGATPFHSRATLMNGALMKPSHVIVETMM
In words: [3H]taurine uptake by COS-7 cells transfected with rB16a. The note with it: for inhibition at 10 µM: COS-7, read-out: % Inhibition of [3H]taurine uptake, rB16a, inhibitor 10 μM; for inhibition at 10 µM / inhibition at 100 µM / inhibition at 1000 µM / % Inhibition of [3H]taurine uptake, rB16a: 50 nM [3H]taurine, 10 minutes, 37° C.; for inhibition at 100 µM: COS-7, read-out: % Inhibition of [3H]taurine uptake, rB16a, inhibitor 100 μM; for inhibition at 1000 µM: COS-7, read-out: % Inhibition of [3H]taurine uptake, rB16a, inhibitor 1 mM.
Experimental: Transient transfections of COS cells with the plasmid pEVJB-rB16a were carried out using DEAE-dextran with DMSO according to the method of Lopata et al. (58) with minor modifications. COS cells were grown (37° C., 5%CO2) in high glucose Dulbecco's modified Eagle medium supplemented with 10% bovine calf serum, 100 U/ml penicillin G, and 100 μg/ml streptomycin sulfate. Cells were routinely used two days after transfection for transport studies.
Plates were incubated at 37° C. for 10 minutes unless indicated otherwise, then washed rapidly 3× with ice cold HBS. Cells were solubilized with 0.05% sodium deoxycholate/0.1N NaOH), an aliquot was neutralized with 1N HCl, and radioactivity was determined by scintillation counting. Protein was quantified in an aliquot of the solubilized cells using a BIO-RAD protein assay kit, according to the manufacturer's directions.

A further experiment addresses T2, rat GAT-2 (Rattus norvegicus, UniProt P31646).
T2 sequence (P31646 1-602): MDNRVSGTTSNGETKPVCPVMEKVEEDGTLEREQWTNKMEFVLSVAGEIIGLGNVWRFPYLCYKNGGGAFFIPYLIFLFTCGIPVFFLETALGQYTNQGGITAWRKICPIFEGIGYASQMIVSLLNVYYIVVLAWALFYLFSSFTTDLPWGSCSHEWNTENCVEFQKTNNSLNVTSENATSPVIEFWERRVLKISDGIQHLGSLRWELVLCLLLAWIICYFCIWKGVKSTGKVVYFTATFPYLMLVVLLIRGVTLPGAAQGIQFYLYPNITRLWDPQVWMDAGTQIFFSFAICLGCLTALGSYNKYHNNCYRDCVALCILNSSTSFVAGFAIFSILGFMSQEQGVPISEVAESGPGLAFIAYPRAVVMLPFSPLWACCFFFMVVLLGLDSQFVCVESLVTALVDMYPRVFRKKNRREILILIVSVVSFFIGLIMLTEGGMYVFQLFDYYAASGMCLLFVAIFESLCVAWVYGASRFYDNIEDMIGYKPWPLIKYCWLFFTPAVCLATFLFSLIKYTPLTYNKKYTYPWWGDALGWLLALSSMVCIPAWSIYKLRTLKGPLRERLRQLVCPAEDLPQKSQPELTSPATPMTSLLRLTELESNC

In a further experiment the target is T3, human GAT-3 (Homo sapiens, UniProt P48066).
T3 sequence (P48066 1-632): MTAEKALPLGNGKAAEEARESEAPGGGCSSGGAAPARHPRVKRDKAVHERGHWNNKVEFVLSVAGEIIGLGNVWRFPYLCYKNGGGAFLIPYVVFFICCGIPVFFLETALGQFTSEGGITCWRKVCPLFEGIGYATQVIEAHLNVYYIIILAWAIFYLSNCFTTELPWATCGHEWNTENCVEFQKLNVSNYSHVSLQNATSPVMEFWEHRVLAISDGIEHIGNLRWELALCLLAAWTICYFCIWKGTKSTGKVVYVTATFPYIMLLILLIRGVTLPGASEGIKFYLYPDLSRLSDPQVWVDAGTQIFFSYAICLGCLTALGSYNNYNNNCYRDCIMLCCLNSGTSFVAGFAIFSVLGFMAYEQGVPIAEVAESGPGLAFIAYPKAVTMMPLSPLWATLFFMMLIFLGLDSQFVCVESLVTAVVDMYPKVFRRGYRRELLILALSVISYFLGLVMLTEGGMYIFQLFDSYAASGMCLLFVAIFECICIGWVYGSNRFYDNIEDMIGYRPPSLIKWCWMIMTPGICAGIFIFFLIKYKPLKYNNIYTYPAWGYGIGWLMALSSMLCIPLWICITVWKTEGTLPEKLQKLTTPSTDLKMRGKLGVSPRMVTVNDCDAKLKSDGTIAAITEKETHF
The conditions noted are these: 50 nM [3H]GABA.

The target in the next experiment is rat GAT-1 (Rattus norvegicus, UniProt P23978). The conditions noted are these: for IC50: read-out: IC50 for inhibition of [3H]GABA uptake, rGAT-1 (Table 8).
The target of the next experiment is human GAT-1 (Homo sapiens, UniProt P30531). The note with it: read-out: IC50 for inhibition of [3H]GABA uptake, human GAT-1.
Sequence of human GAT-1 (P30531 whole entry): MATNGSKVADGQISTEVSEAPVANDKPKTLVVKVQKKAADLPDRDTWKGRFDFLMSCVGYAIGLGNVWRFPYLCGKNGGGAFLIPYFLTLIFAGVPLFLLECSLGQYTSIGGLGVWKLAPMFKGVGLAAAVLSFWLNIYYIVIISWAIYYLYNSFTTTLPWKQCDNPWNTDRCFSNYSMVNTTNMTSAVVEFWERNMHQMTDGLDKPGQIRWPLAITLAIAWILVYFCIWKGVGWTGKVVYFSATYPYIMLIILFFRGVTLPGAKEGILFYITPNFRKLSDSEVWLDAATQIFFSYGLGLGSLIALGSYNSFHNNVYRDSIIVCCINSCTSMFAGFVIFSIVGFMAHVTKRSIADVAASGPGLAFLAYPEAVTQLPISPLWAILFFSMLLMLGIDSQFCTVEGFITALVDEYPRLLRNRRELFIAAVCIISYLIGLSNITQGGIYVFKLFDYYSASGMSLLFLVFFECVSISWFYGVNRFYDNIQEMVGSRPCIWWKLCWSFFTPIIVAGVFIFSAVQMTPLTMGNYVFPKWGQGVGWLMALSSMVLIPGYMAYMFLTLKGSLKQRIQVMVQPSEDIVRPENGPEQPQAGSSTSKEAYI
The target of another experiment is T4, hBGT-1 (Homo sapiens, UniProt P48065).
T4 sequence (P48065 1-614): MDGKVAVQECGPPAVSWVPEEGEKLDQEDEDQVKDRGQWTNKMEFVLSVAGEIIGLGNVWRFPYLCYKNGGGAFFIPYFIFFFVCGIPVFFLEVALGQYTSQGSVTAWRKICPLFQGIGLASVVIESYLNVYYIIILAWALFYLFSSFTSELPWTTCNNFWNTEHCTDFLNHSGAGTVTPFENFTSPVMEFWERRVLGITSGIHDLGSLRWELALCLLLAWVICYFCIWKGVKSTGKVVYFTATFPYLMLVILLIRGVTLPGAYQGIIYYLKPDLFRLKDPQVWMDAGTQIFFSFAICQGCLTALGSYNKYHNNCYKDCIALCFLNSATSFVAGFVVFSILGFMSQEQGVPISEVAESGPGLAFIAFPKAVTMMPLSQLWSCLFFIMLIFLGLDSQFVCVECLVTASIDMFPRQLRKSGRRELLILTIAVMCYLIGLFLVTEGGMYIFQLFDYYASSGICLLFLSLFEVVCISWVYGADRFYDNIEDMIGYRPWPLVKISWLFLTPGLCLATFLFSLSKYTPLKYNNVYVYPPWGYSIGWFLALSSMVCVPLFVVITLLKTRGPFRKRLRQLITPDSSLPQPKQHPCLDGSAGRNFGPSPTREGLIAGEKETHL
Briefly: cell-based.

Where [2] appears, read: IC50 for inhibition of [3H]GABA uptake, human GAT-3, stable cell line.

Several values for one entry are separate records, joined by “and”; a condition that tells them apart may be missing. Equal values may be shown once. Read-outs that look alike come from different tables or passages of the source. Bounds are passed on as bounds.

Experimental for hBGT-1: (§1) Cells were grown under standard conditions (37° C., 5% CO2) in Dulbecco's modified Eagles's medium (GIBCO, Grand Island, N.Y.).
(§2) Cells grown in 24-well plates were washed 3× with HEPES-buffered saline (HBS, in mM: NaCl, 150; HEPES, 20; CaCl2, 1; glucose, 10; KCl, 5; MgCl2, 1; pH 7.4) and allowed to equilibrate on a 37° C. slide warmer. After 10 minutes the medium was removed and unlabeled drugs in HBS were added (450 μl/well). […] Plates were incubated at 37° C. for 10 minutes, then washed rapidly 3× with ice-cold HBS, using a 24-position plate washer (Brandel, Gaithersburg, Mass.; model PW-12). Cells were solubilized with 0.05% sodium deoxycholate/0.1N NaOH (0.25 ml/well), an aliquot neutralized with 1N HCl, and radioactivity was determined by scintillation counting. Protein was quantified in an aliquot of the solubilized cells using a BIO-RAD protein assay kit, according to the manufacturer's directions.
(§3) Lipophilic inhibitors were dissolved in DMSO.
(§4) Data Analysis: Competition curves were conducted in duplicate, using 10 concentrations of unlabeled drug.
Experimental for human GAT-1: as §1, §2, §3, §4
Experimental for human GAT-3: as §1, §2, §3, §4
Experimental for rat GAT-1: as §2, §3, §4
COS cells grown in 75 cm^2 or 150 cm^2 flasks in DMEM with 10% bovine calf serum, 100 U/ml penicillin G, and 100 μg/ml streptomycin sulfate (37° C., 5% CO2) were transfected using DEAE-dextran. On the day following transfection the cells were split into 24-well assay plates coated with poly-D-lysine (10 μg/ml), and transport was measured 24 hours later.
After 10 minutes the medium was removed and unlabeled drugs in HBS were added (450 μl/well). […] Plates were incubated at 37° C. for 10 minutes, then washed rapidly 3× with ice-cold HBS, using a 24-position plate washer (Brandel, Gaithersburg, Mass.; model PW-12). Cells were solubilized with 0.05% sodium deoxycholate/0.1N NaOH (0.25 ml/well), an aliquot neutralized with 1N HCl, and radioactivity was determined by scintillation counting. Protein was quantified in an aliquot of the solubilized cells using a BIO-RAD protein assay kit, according to the manufacturer's directions.
Experimental for rat GAT-2: as §1, §2, §3, §4

For orientation: inhibition means the percentage by which the read-out fell short of the control. Broadly, the IC50 is the point on the concentration scale where inhibition reaches its midpoint. Take `NCCCC(=O)O` [GABA, gamma-aminobutyric acid]: in experiment [1], the inhibition at 10 µM is 9 ± 6%, the inhibition at 100 µM is about 10% and the inhibition at 1000 µM was about 40%. Moreover, the “affinity of the taurine transporter for GABA” value in experiment [1] (from Table 15) was about 1 mM. For the same molecule, the “% Inhibition of [3H]taurine uptake, rB16a” value (from here on “% Inhibition”) in experiment [1] (inhibitor 1 mM) is given as 44 ± 6 (8) %. Also, the IC50 against rat GAT-2 was about 5 µM. On human GAT-3 (setting [2]), the IC50 was ~5 µM and ~7 µM.

Regarding `N=C(N)NCCS(=O)(=O)O` [GES, guanidinoethanesulfonic acid], the half-inhibitory concentration (IC50) at rat GAT-1 (full competition curves, 50 nM [3H]GABA) was 4840 µM. Besides, the entries for the “% Inhibition” value in experiment [1] (inhibitor 10 μM), in experiment [1] (inhibitor 100 μM) and in experiment [1] (inhibitor 1 mM) were 11%, 45% and 92%, respectively.

For `O=C(O)C1=CCCN(CCON=C(c2ccccc2)c2ccccc2)C1` [NNC-711], the IC50 on human GAT-1 is 0.04 ± 0.01 µM; on rat GAT-1, 0.38 µM; on rat GAT-2 (read-out: IC50 for inhibition of [3H]GABA uptake, rat GAT-2, stable cell line, 50 nM [3H]GABA), 171 ± 53 µM; at human GAT-3 (read-out: IC50 for inhibition of [3H]GABA uptake, human GAT-3, stable cell line) it was 1700 ± 252 µM. In addition, on rat GAT-1, the “selectivity for GAT-1” value is reported as 1,000 fold.

In turn, `O=C(O)C1=CCCNC1` [guvacine] came in with an IC50 on hBGT-1 of over 1000 µM.

Turning to `NCCS(=O)O` [hypotaurine], in experiment [1], the inhibition at 10 µM was in the range of 30 to 40%, the inhibition at 100 µM was about 90% and the inhibition at 1000 µM is about 100%. In addition, in experiment [1] (inhibitor 10 μM), the “% Inhibition” value is recorded as 26 ± 7 (7) %. Besides, in experiment [1] (inhibitor 100 μM), the “% Inhibition” value is on record as 84 ± 3 (4) %.

Consider `NCCS(=O)(=O)O` [taurine, 2-aminoethanesulfonic acid], for which, in experiment [1], the inhibition at 10 µM was in the range of 30 to 40%, the inhibition at 100 µM is about 90% and the inhibition at 1000 µM is about 100%. The “% Inhibition” value in experiment [1] (inhibitor 10 μM) is 29 ± 8 (5) %. In addition, the “% Inhibition” value in experiment [1] (inhibitor 100 μM) is recorded as 83 ± 2 (5) %. The “% Inhibition” value in experiment [1] (inhibitor 1 mM) worked out at 100° %. In addition, the “VMAX of taurine transport, COS/rB16a” value in experiment [1] (various concentrations of [3H]taurine, 30 seconds) is given as 0.96±0.27 nmoles/mg protein.

Regarding `NCCC(=O)O` [β-alanine], the IC50 on hBGT-1 (IC50 at hBGT-1) was over 1000 µM; against hBGT-1 (IC50 for inhibition of [3H]GABA uptake, human BGT-1, stable cell line, 50 nM [3H]GABA), 1320 ± 224 µM; at rat GAT-2, 19 ± 7 µM; against human GAT-3 (setting [2]), ~58 µM and 58 µM. For the same molecule, in experiment [1], the inhibition at 10 µM came to 15%. In addition, the inhibition at 100 µM in experiment [1] was determined as 51%. Further, the inhibition at 1000 µM in experiment [1] is 96%.

Regarding hydroxynipecotic acid [OH-nipecotic], the IC50 at rat GAT-1 turned out to be 44 ± 8 µM.
